Reference: publication PMC3814616, “BRAF inhibitors suppress apoptosis through off-target inhibition of JNK signaling” (eLife, 2013)

Tests used:
[1] = test system: NOXA; experiment: Western blot, UV-induced NOXA expression; format: cell-based, human; details: 1 μM
[2] = target: T1, TAOK3 (Homo sapiens, UniProt Q9H2K8); experiment: Quantitative competitive binding assay (KINOMEscan); details: for remaining binding at 0.05 µM: read-out: Percent control (50 nM); for remaining binding at 0.2 µM: read-out: Percent control (200 nM); for remaining binding at 1 µM: read-out: Percent control (1000 nM); for remaining binding at 10 µM: read-out: Percent control (10 μM)
T1 construct: purchased KINOMEscan (DiscoveRx), San Diego, CA
T1 sequence (Q9H2K8 whole entry): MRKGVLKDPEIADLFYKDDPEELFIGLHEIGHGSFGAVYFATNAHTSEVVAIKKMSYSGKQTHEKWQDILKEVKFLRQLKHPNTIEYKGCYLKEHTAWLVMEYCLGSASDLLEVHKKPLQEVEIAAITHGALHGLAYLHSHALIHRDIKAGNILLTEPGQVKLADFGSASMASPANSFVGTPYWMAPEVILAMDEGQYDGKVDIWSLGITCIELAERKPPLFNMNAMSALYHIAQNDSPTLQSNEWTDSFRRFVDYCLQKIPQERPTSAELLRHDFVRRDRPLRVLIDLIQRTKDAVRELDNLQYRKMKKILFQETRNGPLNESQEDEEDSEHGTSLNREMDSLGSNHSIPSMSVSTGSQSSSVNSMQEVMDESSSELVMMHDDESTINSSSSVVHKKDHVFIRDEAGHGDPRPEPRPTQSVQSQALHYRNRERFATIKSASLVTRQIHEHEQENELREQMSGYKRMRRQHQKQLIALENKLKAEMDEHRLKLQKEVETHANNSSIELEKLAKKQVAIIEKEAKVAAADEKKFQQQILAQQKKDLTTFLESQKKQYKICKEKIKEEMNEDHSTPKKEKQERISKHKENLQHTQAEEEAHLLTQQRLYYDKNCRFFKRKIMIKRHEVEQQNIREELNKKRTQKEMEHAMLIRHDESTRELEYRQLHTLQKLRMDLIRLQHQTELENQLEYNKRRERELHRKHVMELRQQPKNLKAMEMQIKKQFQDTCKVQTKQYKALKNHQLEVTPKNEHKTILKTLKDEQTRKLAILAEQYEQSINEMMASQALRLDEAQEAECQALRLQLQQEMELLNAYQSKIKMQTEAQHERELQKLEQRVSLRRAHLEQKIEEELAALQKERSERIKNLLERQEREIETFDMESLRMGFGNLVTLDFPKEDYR

[3] = target: T2, HPK1 (MAP4K1) (Homo sapiens, UniProt Q92918); experiment: as above; details: for remaining binding at 0.05 µM: read-out: Percent control (50 nM); for remaining binding at 0.2 µM: read-out: Percent control (200 nM); for remaining binding at 1 µM: read-out: Percent control (1000 nM); for remaining binding at 10 µM: read-out: Percent control (10 μM)
T2 construct: purchased KINOMEscan (DiscoveRx), San Diego, CA
T2 sequence (Q92918 whole entry): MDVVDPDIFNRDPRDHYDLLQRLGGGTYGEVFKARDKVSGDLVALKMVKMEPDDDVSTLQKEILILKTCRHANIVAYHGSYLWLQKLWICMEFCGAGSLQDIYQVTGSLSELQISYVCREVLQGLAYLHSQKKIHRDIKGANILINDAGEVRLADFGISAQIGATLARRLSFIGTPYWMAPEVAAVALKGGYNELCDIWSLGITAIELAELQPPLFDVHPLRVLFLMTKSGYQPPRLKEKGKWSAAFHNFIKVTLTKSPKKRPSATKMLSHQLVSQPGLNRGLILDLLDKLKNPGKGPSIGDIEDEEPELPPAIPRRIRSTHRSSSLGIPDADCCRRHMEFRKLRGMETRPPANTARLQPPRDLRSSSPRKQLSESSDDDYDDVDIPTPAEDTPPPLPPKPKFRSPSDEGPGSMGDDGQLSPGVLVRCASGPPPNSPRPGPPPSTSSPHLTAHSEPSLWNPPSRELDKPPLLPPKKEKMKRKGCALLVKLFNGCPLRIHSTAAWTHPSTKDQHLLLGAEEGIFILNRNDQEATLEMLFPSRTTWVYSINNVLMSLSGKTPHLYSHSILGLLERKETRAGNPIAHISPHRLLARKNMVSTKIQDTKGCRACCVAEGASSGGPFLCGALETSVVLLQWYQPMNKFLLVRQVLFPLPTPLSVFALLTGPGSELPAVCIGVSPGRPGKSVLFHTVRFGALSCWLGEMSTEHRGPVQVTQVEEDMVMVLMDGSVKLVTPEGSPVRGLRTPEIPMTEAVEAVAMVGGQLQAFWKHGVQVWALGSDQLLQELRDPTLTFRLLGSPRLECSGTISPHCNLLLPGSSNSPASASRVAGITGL

[4] = target: T3, MAP4K4 (Homo sapiens, UniProt O95819); experiment: as above; details: for remaining binding at 0.05 µM: read-out: Percent control (50 nM); for remaining binding at 0.2 µM: read-out: Percent control (200 nM); for remaining binding at 10 µM: read-out: Percent control (10 μM)
T3 construct: purchased KINOMEscan (DiscoveRx), San Diego, CA

[5] = target: T4, MAP4K3 (Homo sapiens, UniProt Q8IVH8); experiment: as above; details: for remaining binding at 0.05 µM: read-out: Percent control (50 nM); for remaining binding at 0.2 µM: read-out: Percent control (200 nM); for remaining binding at 1 µM: read-out: Percent control (1000 nM); for remaining binding at 10 µM: read-out: Percent control (10 μM)
T4 construct: purchased KINOMEscan (DiscoveRx), San Diego, CA
T4 sequence (Q8IVH8 1-894): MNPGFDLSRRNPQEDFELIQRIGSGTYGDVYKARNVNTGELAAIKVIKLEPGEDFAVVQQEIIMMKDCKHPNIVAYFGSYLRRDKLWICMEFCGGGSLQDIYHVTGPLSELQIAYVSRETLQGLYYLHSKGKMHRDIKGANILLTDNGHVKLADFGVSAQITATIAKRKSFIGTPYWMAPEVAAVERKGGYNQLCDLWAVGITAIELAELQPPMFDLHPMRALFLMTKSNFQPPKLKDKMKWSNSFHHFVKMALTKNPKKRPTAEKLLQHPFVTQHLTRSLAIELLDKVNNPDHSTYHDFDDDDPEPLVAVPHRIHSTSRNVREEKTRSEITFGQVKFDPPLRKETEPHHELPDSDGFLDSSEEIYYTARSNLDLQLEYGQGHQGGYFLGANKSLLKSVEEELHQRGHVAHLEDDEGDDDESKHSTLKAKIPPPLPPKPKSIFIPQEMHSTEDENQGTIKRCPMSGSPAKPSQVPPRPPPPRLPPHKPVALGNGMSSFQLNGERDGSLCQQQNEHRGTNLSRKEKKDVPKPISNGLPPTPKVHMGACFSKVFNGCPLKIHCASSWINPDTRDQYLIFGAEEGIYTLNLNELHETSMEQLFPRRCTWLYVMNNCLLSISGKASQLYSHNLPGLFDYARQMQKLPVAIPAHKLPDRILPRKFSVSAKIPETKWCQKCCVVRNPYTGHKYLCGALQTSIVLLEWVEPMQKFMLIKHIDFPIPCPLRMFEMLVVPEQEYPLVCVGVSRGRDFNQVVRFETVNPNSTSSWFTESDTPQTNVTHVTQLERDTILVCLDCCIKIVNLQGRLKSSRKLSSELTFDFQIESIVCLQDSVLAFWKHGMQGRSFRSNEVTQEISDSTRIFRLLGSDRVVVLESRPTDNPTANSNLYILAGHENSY

[6] = target: T5, BLK (Homo sapiens, UniProt P51451); experiment: as above; details: for IC50: estimated Kd, averaged pointwise estimates, transformed Hill equation, read-out: Calculated estimate of IC50; for remaining binding at 0.05 µM: read-out: Percent control (50 nM); for remaining binding at 0.2 µM: read-out: Percent control (200 nM); for remaining binding at 1 µM: read-out: Percent control (1000 nM); for remaining binding at 10 µM: read-out: Percent control (10 μM)
T5 construct: purchased KINOMEscan (DiscoveRx), San Diego, CA

[7] = target: T6, MAP3K3 (Homo sapiens, UniProt Q99759); experiment: as above; details: for remaining binding at 0.05 µM: read-out: Percent control (50 nM); for remaining binding at 0.2 µM: read-out: Percent control (200 nM); for remaining binding at 1 µM: read-out: Percent control (1000 nM); for remaining binding at 10 µM: read-out: Percent control (10 μM)
T6 construct: purchased KINOMEscan (DiscoveRx), San Diego, CA
T6 sequence (Q99759 whole entry): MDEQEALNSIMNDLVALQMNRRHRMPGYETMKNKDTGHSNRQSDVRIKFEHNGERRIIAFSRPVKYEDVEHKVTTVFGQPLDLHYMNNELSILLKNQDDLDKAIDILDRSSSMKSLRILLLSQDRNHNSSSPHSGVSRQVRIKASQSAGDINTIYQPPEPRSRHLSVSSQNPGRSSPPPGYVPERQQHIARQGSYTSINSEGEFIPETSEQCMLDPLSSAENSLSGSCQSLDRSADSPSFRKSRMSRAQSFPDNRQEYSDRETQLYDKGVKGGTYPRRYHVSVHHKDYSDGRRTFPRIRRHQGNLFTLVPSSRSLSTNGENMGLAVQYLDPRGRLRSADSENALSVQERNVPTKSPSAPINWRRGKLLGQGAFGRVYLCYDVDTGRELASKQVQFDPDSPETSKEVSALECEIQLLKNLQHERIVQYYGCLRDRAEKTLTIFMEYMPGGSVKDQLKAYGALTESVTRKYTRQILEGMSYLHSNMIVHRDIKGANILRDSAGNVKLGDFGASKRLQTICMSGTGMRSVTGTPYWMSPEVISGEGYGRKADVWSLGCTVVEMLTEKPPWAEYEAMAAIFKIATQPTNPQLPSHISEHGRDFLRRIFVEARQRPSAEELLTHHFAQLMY

[8] = target: T7, RIPK1 (Homo sapiens, UniProt Q13546); experiment: as above; details: for remaining binding at 0.05 µM: read-out: Percent control (50 nM); for remaining binding at 0.2 µM: read-out: Percent control (200 nM); for remaining binding at 1 µM: read-out: Percent control (1000 nM); for remaining binding at 10 µM: read-out: Percent control (10 μM)
T7 construct: purchased KINOMEscan (DiscoveRx), San Diego, CA
T7 sequence (Q13546 whole entry): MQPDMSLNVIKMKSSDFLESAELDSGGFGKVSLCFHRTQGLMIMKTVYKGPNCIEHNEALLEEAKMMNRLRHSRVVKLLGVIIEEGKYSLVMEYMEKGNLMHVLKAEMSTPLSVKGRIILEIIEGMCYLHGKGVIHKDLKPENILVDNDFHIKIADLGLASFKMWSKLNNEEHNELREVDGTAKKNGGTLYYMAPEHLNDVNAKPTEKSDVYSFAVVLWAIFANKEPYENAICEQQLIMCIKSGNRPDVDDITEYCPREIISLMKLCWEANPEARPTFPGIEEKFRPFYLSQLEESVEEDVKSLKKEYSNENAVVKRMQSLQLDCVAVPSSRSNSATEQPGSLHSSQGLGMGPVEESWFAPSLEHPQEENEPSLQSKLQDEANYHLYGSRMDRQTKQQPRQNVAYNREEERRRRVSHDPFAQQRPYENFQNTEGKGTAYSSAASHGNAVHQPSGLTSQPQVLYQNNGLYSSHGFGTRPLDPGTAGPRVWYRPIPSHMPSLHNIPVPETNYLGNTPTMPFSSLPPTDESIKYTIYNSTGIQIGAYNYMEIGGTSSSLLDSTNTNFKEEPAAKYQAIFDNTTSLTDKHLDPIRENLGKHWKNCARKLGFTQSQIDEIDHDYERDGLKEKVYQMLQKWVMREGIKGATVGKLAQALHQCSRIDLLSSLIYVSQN

[9] = target: T8, MAP4K5 (Homo sapiens, UniProt Q9Y4K4); experiment: as above; details: for IC50: estimated Kd, averaged pointwise estimates, transformed Hill equation, read-out: Calculated estimate of IC50; for remaining binding at 0.05 µM: read-out: Percent control (50 nM); for remaining binding at 0.2 µM: read-out: Percent control (200 nM); for remaining binding at 1 µM: read-out: Percent control (1000 nM); for remaining binding at 10 µM: read-out: Percent control (10 μM)
T8 construct: purchased KINOMEscan (DiscoveRx), San Diego, CA

[10] = target: T9, MAP3K4 (Homo sapiens, UniProt Q9Y6R4); experiment: as above; details: for remaining binding at 0.05 µM: read-out: Percent control (50 nM); for remaining binding at 0.2 µM: read-out: Percent control (200 nM); for remaining binding at 1 µM: read-out: Percent control (1000 nM); for remaining binding at 10 µM: read-out: Percent control (10 μM)
T9 construct: purchased KINOMEscan (DiscoveRx), San Diego, CA
T9 sequence (Q9Y6R4 whole entry): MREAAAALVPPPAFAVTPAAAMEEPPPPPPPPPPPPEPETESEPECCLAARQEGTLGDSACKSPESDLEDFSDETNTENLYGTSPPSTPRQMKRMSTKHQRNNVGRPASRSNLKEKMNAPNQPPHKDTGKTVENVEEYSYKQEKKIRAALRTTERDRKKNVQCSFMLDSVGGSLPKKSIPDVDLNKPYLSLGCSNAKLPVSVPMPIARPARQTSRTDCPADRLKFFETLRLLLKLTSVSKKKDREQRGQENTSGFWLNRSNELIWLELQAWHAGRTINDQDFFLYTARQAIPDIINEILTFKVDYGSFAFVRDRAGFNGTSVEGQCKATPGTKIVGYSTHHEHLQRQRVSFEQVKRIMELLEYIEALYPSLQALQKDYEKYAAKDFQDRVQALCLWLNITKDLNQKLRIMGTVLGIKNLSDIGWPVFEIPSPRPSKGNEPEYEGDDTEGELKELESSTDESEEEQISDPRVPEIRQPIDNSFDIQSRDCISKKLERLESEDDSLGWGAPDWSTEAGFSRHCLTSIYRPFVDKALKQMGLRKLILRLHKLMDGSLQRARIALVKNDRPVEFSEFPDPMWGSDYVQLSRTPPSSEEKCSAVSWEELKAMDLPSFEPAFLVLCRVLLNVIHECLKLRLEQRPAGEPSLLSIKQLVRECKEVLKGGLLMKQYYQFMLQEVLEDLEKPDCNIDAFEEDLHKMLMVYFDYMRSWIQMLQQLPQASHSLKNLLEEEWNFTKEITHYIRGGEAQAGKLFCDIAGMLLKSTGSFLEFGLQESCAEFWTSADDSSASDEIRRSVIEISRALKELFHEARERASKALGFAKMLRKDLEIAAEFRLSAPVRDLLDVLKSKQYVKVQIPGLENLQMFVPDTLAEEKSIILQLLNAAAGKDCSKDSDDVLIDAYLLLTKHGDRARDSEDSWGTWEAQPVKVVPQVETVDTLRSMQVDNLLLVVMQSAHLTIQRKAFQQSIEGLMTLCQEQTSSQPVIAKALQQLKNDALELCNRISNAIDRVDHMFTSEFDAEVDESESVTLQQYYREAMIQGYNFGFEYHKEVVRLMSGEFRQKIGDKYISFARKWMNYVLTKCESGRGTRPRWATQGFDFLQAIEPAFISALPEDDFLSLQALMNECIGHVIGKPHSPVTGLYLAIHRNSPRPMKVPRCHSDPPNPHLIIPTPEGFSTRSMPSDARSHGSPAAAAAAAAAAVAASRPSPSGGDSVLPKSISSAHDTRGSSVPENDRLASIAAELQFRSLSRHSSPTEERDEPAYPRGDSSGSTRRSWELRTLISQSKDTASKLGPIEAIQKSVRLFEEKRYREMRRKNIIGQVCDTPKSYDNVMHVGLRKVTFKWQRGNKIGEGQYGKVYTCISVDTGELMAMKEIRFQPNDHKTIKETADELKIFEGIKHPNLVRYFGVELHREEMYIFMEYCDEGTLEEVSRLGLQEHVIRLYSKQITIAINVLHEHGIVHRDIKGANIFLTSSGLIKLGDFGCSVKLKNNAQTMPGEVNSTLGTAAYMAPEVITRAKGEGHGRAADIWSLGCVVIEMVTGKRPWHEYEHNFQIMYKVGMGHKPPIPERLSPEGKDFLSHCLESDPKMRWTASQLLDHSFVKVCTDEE

[11] = target: T10, MINK (MINK1) (Homo sapiens, UniProt Q8N4C8); experiment: as above; details: for remaining binding at 0.05 µM: read-out: Percent control (50 nM); for remaining binding at 0.2 µM: read-out: Percent control (200 nM); for remaining binding at 1 µM: read-out: Percent control (1000 nM); for remaining binding at 10 µM: read-out: Percent control (10 μM)
T10 construct: purchased KINOMEscan (DiscoveRx), San Diego, CA

[12] = estimated Kd, averaged pointwise estimates, transformed Hill equation, read-out: Calculated estimate of IC50

## CCCS(=O)(=O)Nc1ccc(F)c(C(=O)c2c[nH]c3ncc(Cl)cc23)c1F [PLX4720]
[1]; cSCC and HaCaT cell lines
  UV-induced NOXA expression: suppressed
[2]
  remaining binding at 0.05 µM: 100%
  remaining binding at 0.2 µM: 98%
  remaining binding at 1 µM: 96%
  remaining binding at 10 µM: 58%
[3]
  remaining binding at 0.05 µM: 100%
  remaining binding at 0.2 µM: 100%
  remaining binding at 1 µM: 100%
  remaining binding at 10 µM: 47%
[4]
  remaining binding at 0.05 µM: 92%
  remaining binding at 0.2 µM: 99%
  remaining binding at 10 µM: 46%
[4]; read-out: Percent control (1000 nM)
  remaining binding at 1 µM: 100%
[5]
  remaining binding at 0.05 µM: 100%
  remaining binding at 0.2 µM: 95%
  remaining binding at 1 µM: 90%
  remaining binding at 10 µM: 56%
[6]
  IC50: 0.447 µM
  remaining binding at 0.05 µM: 91%
  remaining binding at 0.2 µM: 78%
  remaining binding at 1 µM: 32%
  remaining binding at 10 µM: 1%
[7]
  remaining binding at 0.05 µM: 94%
  remaining binding at 0.2 µM: 97%
  remaining binding at 1 µM: 98%
  remaining binding at 10 µM: 75%
[8]
  remaining binding at 0.05 µM: 99%
  remaining binding at 0.2 µM: 87%
  remaining binding at 1 µM: 85%
  remaining binding at 10 µM: 50%
[9]
  IC50: 1.26 µM
  remaining binding at 0.05 µM: 96%
  remaining binding at 0.2 µM: 100%
  remaining binding at 1 µM: 63%
  remaining binding at 10 µM: 8%
[10]
  remaining binding at 0.05 µM: 100%
  remaining binding at 0.2 µM: 100%
  remaining binding at 1 µM: 100%
  remaining binding at 10 µM: 65%
[11]
  remaining binding at 0.05 µM: 89%
  remaining binding at 0.2 µM: 100%
  remaining binding at 1 µM: 98%
  remaining binding at 10 µM: 55%

## CCCS(=O)(=O)Nc1ccc(F)c(C(=O)c2c[nH]c3ncc(-c4ccc(Cl)cc4)cc23)c1F [vemurafenib]
[1]; NHEK
  NOXA induction at 24 hr post-UV irradiation: diminished
[2]; [12]
  IC50: 15.5 µM
[2]
  remaining binding at 0.05 µM: 92%
  remaining binding at 0.2 µM: 98%
  remaining binding at 1 µM: 92%
  remaining binding at 10 µM: 80%
[3]
  remaining binding at 0.05 µM: 95%
  remaining binding at 0.2 µM: 88%
  remaining binding at 1 µM: 67%
  remaining binding at 10 µM: 15%
[4]; [12]
  IC50: 2.84 µM
[4]
  remaining binding at 0.05 µM: 96%
  remaining binding at 0.2 µM: 92%
  remaining binding at 10 µM: 23%
[5]
  remaining binding at 0.05 µM: 80%
  remaining binding at 0.2 µM: 90%
  remaining binding at 1 µM: 82%
  remaining binding at 10 µM: 24%
[6]
  IC50: 0.518 µM
  remaining binding at 0.05 µM: 96%
  remaining binding at 0.2 µM: 66%
  remaining binding at 1 µM: 30%
  remaining binding at 10 µM: 0.55%
[7]
  remaining binding at 0.05 µM: 87%
  remaining binding at 0.2 µM: 97%
  remaining binding at 1 µM: 100%
  remaining binding at 10 µM: 94%
[8]
  remaining binding at 0.05 µM: 92%
  remaining binding at 0.2 µM: 100%
  remaining binding at 1 µM: 99%
  remaining binding at 10 µM: 73%
[9]
  IC50: 0.0582 µM
  remaining binding at 0.05 µM: 62%
  remaining binding at 0.2 µM: 33%
  remaining binding at 1 µM: 4.1%
  remaining binding at 10 µM: 0.1%
[10]
  remaining binding at 0.05 µM: 95%
  remaining binding at 0.2 µM: 92%
  remaining binding at 1 µM: 87%
  remaining binding at 10 µM: 46%
[11]; [12]
  IC50: 14.8 µM
[11]
  remaining binding at 0.05 µM: 100%
  remaining binding at 0.2 µM: 100%
  remaining binding at 1 µM: 91%
  remaining binding at 10 µM: 66%
